{
  "source": "patent US8952157B2",
  "about": "“Apoptosis-inducing agents for the treatment of cancer and immune and autoimmune diseases” (AbbVie Inc., priority 2008, dated 2015)",
  "note": "pKi: −log10 of the molar value.",
  "data": [
    {"target": "GST-Bcl-2 (Homo sapiens (Human), UniProt P10415)", "sequence (P10415 whole entry)": "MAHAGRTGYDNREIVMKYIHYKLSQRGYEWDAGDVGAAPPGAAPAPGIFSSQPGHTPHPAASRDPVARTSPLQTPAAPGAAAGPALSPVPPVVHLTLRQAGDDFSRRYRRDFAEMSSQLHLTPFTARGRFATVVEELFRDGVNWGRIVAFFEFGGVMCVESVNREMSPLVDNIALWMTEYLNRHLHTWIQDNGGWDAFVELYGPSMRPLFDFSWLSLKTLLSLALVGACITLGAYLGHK", "assay": "Time Resolved-Fluorescence Resonance Energy Transfer (TR-FRET) Bcl-2 binding assay", "conditions": "not given", "procedure,_shortened": "(§1)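 Ki values derived from TR-FRET displacement of F-Bak peptide from GST-Bcl-2, detected with Tb-labelled anti-GST antibody (ex 340, em 520/495 nm). Compound dilution series started at 50 μM (2× starting concentration); room-temperature incubation 3 hours.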", "values": [
      {"smiles": "CC1(C)CCC(CN2CCN(c3ccc(C(=O)NS(=O)(=O)c4ccc(N[C@H]5CC[C@H](N6CCOCC6)CC5)c([N+](=O)[O-])c4)c(Oc4cc5cc[nH]c5cc4Cl)c3)CC2)=C(c2ccc(Cl)cc2)C1", "note": "[Example 293, Trans-2-[(6-chloro-1H-indol-5-yl)oxy]-4-(4-{[2-(4-chlorophenyl)-4,4-dimethylcyclohex-1-en-1-yl]methyl}piperazin-1-yl)-N-({4-[(4-morpholin-4-ylcyclohexyl)amino]-3-nitrophenyl}sulfonyl)benzamide]", "pKi": 9.63}
    ]},
    {"target": "GST-Bcl-2 (Homo sapiens (Human), UniProt P10415)", "assay": "Time Resolved-Fluorescence Resonance Energy Transfer (TR-FRET) Bcl-2 binding assay", "conditions": "GST-Bcl-2 1 nM, F-Bak peptide probe 100 nM, Tb-anti-GST antibody 1 nM; Ki by Wang's equation", "procedure,_shortened": "as §1", "values": [
      {"smiles": "CC1(C)CCC(CN2CCN(c3ccc(C(=O)NS(=O)(=O)c4cnc(OCC5COCCO5)c(C#N)c4)c(Oc4cc5cc[nH]c5cc4F)c3)CC2)=C(c2ccc(Cl)cc2)C1", "note": "(stereo not shown) [Example 305, 4-(4-{[2-(4-chlorophenyl)-4,4-dimethylcyclohex-1-en-1-yl]methyl}piperazin-1-yl)-N-{[5-cyano-6-(1,4-dioxan-2-ylmethoxy)pyridin-3-yl]sulfonyl}-2-[(6-fluoro-1H-indol-5-yl)oxy]benzamide]", "pKi": 9.84},
      {"smiles": "CC1(C)CCC(CN2CCN(c3ccc(C(=O)NS(=O)(=O)c4ccc(NCC5CCOCC5)c([N+](=O)[O-])c4)c(Oc4cc(Br)nc(NC(=O)OC(C)(C)C)c4)c3)CC2)=C(c2ccc(Cl)cc2)C1", "note": "[Example 372, tert-butyl 6-bromo-4-(5-(4-{[2-(4-chlorophenyl)-4,4-dimethylcyclohex-1-en-1-yl]methyl}piperazin-1-yl)-2-{[({3-nitro-4-[(tetrahydro-2H-pyran-4-ylmethyl)amino]phenyl}sulfonyl)amino]carbonyl}phenoxy)pyridin-2-ylcarbamate]", "pKi": 7.82},
      {"smiles": "CC1(C)CCC(CN2CCN(c3ccc(C(=O)NS(=O)(=O)c4cnc(OCC5COCCO5)c(Br)c4)c(Oc4cc5cc[nH]c5cc4F)c3)CC2)=C(c2ccc(Cl)cc2)C1", "note": "(stereo not shown) [Example 306, N-{[5-bromo-6-(1,4-dioxan-2-ylmethoxy)pyridin-3-yl]sulfonyl}-4-(4-{[2-(4-chlorophenyl)-4,4-dimethylcyclohex-1-en-1-yl]methyl}piperazin-1-yl)-2-[(6-fluoro-1H-indol-5-yl)oxy]benzamide]", "pKi": 9.17},
      {"smiles": "CC1(C)CCC(CN2CCN(c3ccc(C(=O)NS(=O)(=O)c4ccc(OCC5CCOCC5)c([N+](=O)[O-])c4)c(Oc4cc5cc[nH]c5cc4F)c3)CC2)=C(c2ccc(Cl)cc2)C1", "note": "[Example 264, 4-(4-{[2-(4-chlorophenyl)-4,4-dimethylcyclohex-1-en-1-yl]methyl}piperazin-1-yl)-2-[(6-fluoro-1H-indol-5-yl)oxy]-N-{[3-nitro-4-(tetrahydro-2H-pyran-4-ylmethoxy)phenyl]sulfonyl}benzamide]", "pKi": 10.17},
      {"smiles": "CC1(C)CCC(CN2CCN(c3ccc(C(=O)NS(=O)(=O)c4ccc(NCC5CCOCC5)c([N+](=O)[O-])c4)c(Oc4ccc(NCC(F)(F)F)nc4)c3)CC2)=C(c2ccc(Cl)cc2)C1", "note": "[Example 385, 4-(4-{[2-(4-chlorophenyl)-4,4-dimethylcyclohex-1-en-1-yl]methyl}piperazin-1-yl)-N-({3-nitro-4-[(tetrahydro-2H-pyran-4-ylmethyl)amino]phenyl}sulfonyl)-2-({6-[(2,2,2-trifluoroethyl)amino]pyridin-3-yl}oxy)benzamide]", "pKi": 7.31},
      {"smiles": "CC1(C)CC(c2ccc(Cl)cc2)=C(CN2CCN(c3ccc(C(=O)NS(=O)(=O)c4ccc(NCC5CCOCC5)c([N+](=O)[O-])c4)c(Oc4cnc(N)c(Cl)c4)c3)CC2)CO1", "note": "[Example 387, 2-[(6-amino-5-chloropyridin-3-yl)oxy]-4-(4-{[4-(4-chlorophenyl)-6,6-dimethyl-5,6-dihydro-2H-pyran-3-yl]methyl}piperazin-1-yl)-N-({3-nitro-4-[(tetrahydro-2H-pyran-4-ylmethyl)amino]phenyl}sulfonyl)benzamide]", "pKi": "> 11.00"},
      {"smiles": "Cc1nc2cc(Oc3cc(N4CCN(Cc5ccccc5-c5ccc(Cl)cc5)CC4)ccc3C(=O)NS(=O)(=O)c3ccc(NCC4CCOCC4)c([N+](=O)[O-])c3)ccc2s1", "note": "[Example 90, 4-(4-((4′-chloro-1,1′-biphenyl-2-yl)methyl)piperazin-1-yl)-2-((2-methyl-1,3-benzothiazol-5-yl)oxy)-N-((3-nitro-4-((tetrahydro-2H-pyran-4-ylmethyl)amino)phenyl)sulfonyl)benzamide]", "pKi": 7.97},
      {"smiles": "CC1(C)CCC(CN2CCN(c3ccc(C(=O)NS(=O)(=O)c4ccc(NC5CCN(C6CCOCC6)CC5)c([N+](=O)[O-])c4)c(Oc4ccccc4F)c3)CC2)=C(c2ccc(Cl)cc2)C1", "note": "[Example 124, 4-(4-{[2-(4-chlorophenyl)-4,4-dimethylcyclohex-1-en-1-yl]methyl}piperazin-1-yl)-2-(2-fluorophenoxy)-N-({3-nitro-4-[(1-tetrahydro-2H-pyran-4-ylpiperidin-4-yl)amino]phenyl}sulfonyl)benzamide]", "pKi": 10.48},
      {"smiles": "CC1(C)CC(c2ccc(Cl)cc2)=C(CN2CCN(c3ccc(C(=O)NS(=O)(=O)c4ccc(NCC5CCOCC5)c([N+](=O)[O-])c4)c(Oc4cc5cc[nH]c5cc4Cl)c3)CC2)CO1", "note": "[Example 275, 2-[(6-chloro-1H-indol-5-yl)oxy]-4-(4-{[4-(4-chlorophenyl)-6,6-dimethyl-5,6-dihydro-2H-pyran-3-yl]methyl}piperazin-1-yl)-N-({3-nitro-4-[(tetrahydro-2H-pyran-4-ylmethyl)amino]phenyl}sulfonyl)benzamide]", "pKi": 10.09},
      {"smiles": "CN1CCC(Nc2ccc(S(=O)(=O)NC(=O)c3ccc(N4CCN(CC5=C(c6ccc(Cl)cc6)CC(C)(C)CC5)CC4)cc3Oc3cccc4c3CC(=O)N4)cc2[N+](=O)[O-])CC1", "note": "[Example 288, 4-(4-{[2-(4-chlorophenyl)-4,4-dimethylcyclohex-1-en-1-yl]methyl}piperazin-1-yl)-N-({4-[(1-methylpiperidin-4-yl)amino]-3-nitrophenyl}sulfonyl)-2-[(2-oxo-2,3-dihydro-1H-indol-4-yl)oxy]benzamide]", "pKi": 10.77},
      {"smiles": "CC(=O)Nc1cccc(Oc2cc(N3CCN(Cc4ccccc4-c4ccc(Cl)cc4)CC3)ccc2C(=O)NS(=O)(=O)c2ccc(NCC3CCOCC3)c([N+](=O)[O-])c2)c1", "note": "[Example 17, 2-(3-(acetylamino)phenoxy)-4-(4-((4′-chloro-1,1′-biphenyl-2-yl)methyl)piperazin-1-yl)-N-((3-nitro-4-((tetrahydro-2H-pyran-4-ylmethyl)amino)phenyl)sulfonyl)benzamide]", "pKi": 8.25},
      {"smiles": "COc1ccccc1Oc1cc(N2CCN(CC3=C(c4ccc(Cl)cc4)CC(C)(C)CC3)CC2)ccc1C(=O)NS(=O)(=O)c1ccc(NC2CCN(C)CC2)c([N+](=O)[O-])c1", "note": "[Example 180, 4-(4-{[2-(4-chlorophenyl)-4,4-dimethylcyclohex-1-en-1-yl]methyl}piperazin-1-yl)-2-(2-methoxyphenoxy)-N-({4-[(1-methylpiperidin-4-yl)amino]-3-nitrophenyl}sulfonyl)benzamide]", "pKi": 9.95},
      {"smiles": "CC1(C)CCC(CN2CCN(c3ccc(C(=O)NS(=O)(=O)c4ccc(N[C@@H]5CCN(C6CC6)C5)c([N+](=O)[O-])c4)c(Oc4cnc(N)c(Cl)c4)c3)CC2)=C(c2ccc(Cl)cc2)C1", "note": "[Example 370, 2-[(6-amino-5-chloropyridin-3-yl)oxy]-4-(4-{[2-(4-chlorophenyl)-4,4-dimethylcyclohex-1-en-1-yl]methyl}piperazin-1-yl)-N-[(4-{[(3R)-1-cyclopropylpyrrolidin-3-yl]amino}-3-nitrophenyl)sulfonyl]benzamide]", "pKi": "> 11.00"},
      {"smiles": "O=C(NS(=O)(=O)c1ccc(NCC2CCOCC2)c([N+](=O)[O-])c1)c1ccc(N2CCN(Cc3ccccc3-c3ccc(Cl)cc3)CC2)cc1Oc1ccc(OCc2ccccc2)cc1", "note": "[Example 88, 2-(4-(benzyloxy)phenoxy)-4-(4-((4′-chloro-1,1′-biphenyl-2-yl)methyl)piperazin-1-yl)-N-((3-nitro-4-((tetrahydro-2H-pyran-4-ylmethyl)amino)phenyl)sulfonyl)benzamide]", "pKi": "< 5.92"},
      {"smiles": "CN1CC[C@@H](Nc2ccc(S(=O)(=O)NC(=O)c3ccc(N4CCN(CC5=C(c6ccc(Cl)cc6)CC(C)(C)CC5)CC4)cc3Oc3cccc(Cl)c3)cc2[N+](=O)[O-])C1", "note": "[Example 195, 2-(3-chlorophenoxy)-4-(4-{[2-(4-chlorophenyl)-4,4-dimethylcyclohex-1-en-1-yl]methyl}piperazin-1-yl)-N-[(4-{[(3R)-1-methylpyrrolidin-3-yl]amino}-3-nitrophenyl)sulfonyl]benzamide]", "pKi": 9.16},
      {"smiles": "CC(=O)Nc1ccc(Oc2cc(N3CCN(CC4=C(c5ccc(Cl)cc5)CC(C)(C)CC4)CC3)ccc2C(=O)NS(=O)(=O)c2ccc(NCC3CCOCC3)c([N+](=O)[O-])c2)cn1", "note": "[Example 355, 2-{[6-(acetylamino)pyridin-3-yl]oxy}-4-(4-{[2-(4-chlorophenyl)-4,4-dimethylcyclohex-1-en-1-yl]methyl}piperazin-1-yl)-N-({3-nitro-4-[(tetrahydro-2H-pyran-4-ylmethyl)amino]phenyl}sulfonyl)benzamide]", "pKi": 8.02},
      {"smiles": "CN(C)CCCc1c[nH]c2cccc(Oc3cc(N4CCN(CC5=C(c6ccc(Cl)cc6)CC(C)(C)CC5)CC4)ccc3C(=O)NS(=O)(=O)c3ccc(NN4CCN(C)CC4)c([N+](=O)[O-])c3)c12", "note": "[Example 340, 4-(4-{[2-(4-chlorophenyl)-4,4-dimethylcyclohex-1-en-1-yl]methyl}piperazin-1-yl)-2-({3-[3-(dimethylamino)propyl]-1H-indol-4-yl}oxy)-N-({4-[(4-methylpiperazin-1-yl)amino]-3-nitrophenyl}sulfonyl)benzamide]", "pKi": 9.41},
      {"smiles": "CC1(C)CCC(CN2CCN(c3ccc(C(=O)NS(=O)(=O)c4ccc(NCC5COCCO5)c([N+](=O)[O-])c4)c(Oc4cc5cc[nH]c5cc4Cl)c3)CC2)=C(c2ccc(Cl)cc2)C1", "note": "(stereo not shown) [Example 291, 2-[(6-chloro-1H-indol-5-yl)oxy]-4-(4-{[2-(4-chlorophenyl)-4,4-dimethylcyclohex-1-en-1-yl]methyl}piperazin-1-yl)-N-({4-[(1,4-dioxan-2-ylmethyl)amino]-3-nitrophenyl}sulfonyl)benzamide]", "pKi": 9.56}
    ]}
  ]
}
